These results are taken from ChEMBL document CHEMBL5236636, “Synthesis, anticancer evaluation, and molecular docking studies of thiazolyl-pyrazoline derivatives” (Bioorg Med Chem Lett, 2023).

Activity calls are given as the source filed them. The rule behind the calls is not given here.

In data set [1] the test system is A549. Kind of data set: Antiproliferative activity against human A549 cells incubated for 24 hrs by MTT assay. Format: functional, cell-based. The note with it: A549, 24 h. Background: Tetrazolium dyes change colour on reduction, which living cells bring about.
Data set [2] concerns A-375. The data set can be described thus: Antiproliferative activity against human A-375 cells incubated for 24 hrs by MTT assay. The note with it: A-375, 24 h. It is filed as functional, cell-based.
The test system of data set [3] is A-375. The data set can be described thus: Antimetastatic activity against human A-375 cells assessed as reduction in MMP-2 expression at 100 uM preincubated with SNP for 3 hrs followed by compound addition and measured after 24 hrs by gelatin zymography. Format: functional, cell-based.
The test system of data set [4] is A549. The data set can be described thus: Antimetastatic activity against human A549 cells assessed as reduction in MMP-2 expression at 100 uM preincubated with SNP for 3 hrs followed by compound addition and measured after 24 hrs by gelatin zymography. Format: functional, cell-based.
Data set [5] deals with A549. The data set can be described thus: Antimetastatic activity against human A549 cells assessed as reduction in MMP-9 expression at 100 uM preincubated with SNP for 3 hrs followed by compound addition and measured after 24 hrs by gelatin zymography. Format: functional, cell-based.
The subject of data set [6] is A549. The data set can be described thus: Antiinflammatory activity against human A549 cells assessed as reduction in COX-2 expression at 100 uM preincubated with SNP for 3 hrs followed by compound addition and measured after 24 hrs by Western blot analysis. It is filed as functional, cell-based. In general terms: In western blotting, separated proteins are transferred to a membrane and probed.

Data set [7] is described as follows: Cytotoxicity against rabbit articular chondrocytes incubated for 24 hrs by MTT assay. Format: toxicity, cell-based, Oryctolagus cuniculus, Chondrocyte.
In data set [8] the test system is A-375. Kind of data set: Antiinflammatory activity against human A-375 cells assessed as reduction in COX-2 expression at 100 uM preincubated with SNP for 3 hrs followed by compound addition and measured after 24 hrs by Western blot analysis. Format: functional, cell-based.
Data set [9] can be described thus: Selectivity index, ratio of IC50 for rabbit articular chondrocytes to IC50 for human A-375.
The test system of data set [10] is A-375. Kind of data set: Antimetastatic activity against human A-375 cells assessed as reduction in MMP-9 expression at 100 uM preincubated with SNP for 3 hrs followed by compound addition and measured after 24 hrs by gelatin zymography. It is filed as functional, cell-based.
For data set [11], the system named is A-375. The data set can be described thus: Potency index, ratio of erlotinib IC50 to test compound IC50 for human A-375 cells. Format: functional.
Data set [12] has as its system A549. The data set can be described thus: Potency index, ratio of erlotinib IC50 to test compound IC50 for human A549 cells. Format: functional.

In general, IC50 refers to the concentration that gives 50% inhibition. The low end stands for inhibition by little substance, the high end for a need for much substance. `Brc1ccc(-c2csc(N3N=C(c4ccccc4)CC3c3ccc(Br)cc3)n2)cc1` (configuration not stated): the IC50 in data set [1] came to 74.2 µM; in data set [2], 97.5 µM.
As for `COc1cc(C2CC(c3ccccc3)=NN2c2nc(-c3ccc(Br)cc3)cs2)ccc1OCc1ccccc1` (configuration not stated), the result in data set [3], in data set [4], in [5] and in data set [10] was inactive. The IC50 in data set [1] is 25.9 µM; in [2], 18.4 µM. Besides, the outcome in data set [6] and in [8] was Active. The same molecule showed an IC50 at 24 h in data set [7] of 357 µM. The Ratio IC50 in [9] is 19.4.
`COc1ccc(C2=NN(c3nc(-c4ccc(Br)cc4)cs3)C(c3ccc(Br)cc3)C2)cc1` (configuration not stated): the IC50 came to 45.7 µM in [1] and 31.6 µM in data set [2].
Regarding `COc1ccc(C2=NN(c3nc(-c4ccc(Br)cc4)cs3)C(c3ccc(OCc4ccccc4)c(OC)c3)C2)cc1` (configuration not stated), the outcome in data set [3], in data set [4], in data set [5] and in data set [10] was inactive. In addition, the IC50 in data set [1] is 27.3 µM; in data set [2], 20.6 µM. Further, the result in data set [6] and in data set [8] was Active. The IC50 at 24 h in [7] worked out at 435 µM. In data set [9], the Ratio IC50 was determined as 21.1.
`COc1ccc(C2=NN(c3nc(-c4ccc(Br)cc4)cs3)C(c3ccc(F)cc3)C2)cc1` (configuration not stated): the outcome in data set [3], in data set [4], in data set [5] and in data set [10] was inactive. In addition, the results for the “Ratio IC50” value in [11], in [9] and in data set [12] were 1.7, 9.04 and 1.7, respectively. Moreover, the IC50 in [1] came to 20.3 µM; in [2] it was 16.1 µM. The molecule further yielded an IC50 at 24 h in [7] of 146 µM. Besides, in data set [8], the result was Active.
As to `COc1ccc(C2CC(c3ccccc3)=NN2c2nc(-c3ccc(Br)cc3)cs2)cc1` (configuration not stated), the IC50 in data set [1] amounted to 37.4 µM; in [2], 40.5 µM.
On to `C#Cc1cccc(Nc2ncnc3cc(OCCOC)c(OCCOC)cc23)c1` [ERLOTINIB], for which the values for the half-maximal inhibitory concentration (IC50) in [1] and in data set [2] were 34.2 µM and 25.9 µM, respectively. This molecule had an IC50 at 24 h in [7] of 63.5 µM. Besides, the Ratio IC50 in data set [9] turned out to be 2.45.
With `COc1ccc(C2=NN(c3nc(-c4ccc(Br)cc4)cs3)C(c3ccc(Cl)cc3)C2)cc1` (configuration not stated), the values for the IC50 in [1] and in data set [2] were 47.8 µM and 55.7 µM, respectively.
For `Clc1ccc(C2CC(c3ccccc3)=NN2c2nc(-c3ccc(Br)cc3)cs2)cc1` (configuration not stated), in that order: 52 µM and 42.8 µM.
As for `COc1ccc(C2=NN(c3nc(-c4ccc(Br)cc4)cs3)C(c3ccc(C)cc3)C2)cc1` (configuration not stated), the outcome in data set [3], in [4], in [5] and in data set [10] was inactive. Further, the half-inhibitory concentration (IC50) in [1] stood at 26.1 µM; in data set [2], 20.1 µM. For the same molecule, the IC50 at 24 h in [7] was 151 µM. Moreover, the Ratio IC50 in [9] is 7.53.
For the molecule `Cc1ccc(C2CC(c3ccccc3)=NN2c2nc(-c3ccc(Br)cc3)cs2)cc1` (configuration not stated), the IC50 in data set [1] worked out at 126 µM; in data set [2] it was 103 µM.
For `COc1ccc(C2=NN(c3nc(-c4ccc(Br)cc4)cs3)C(c3ccc(OC)cc3)C2)cc1` (configuration not stated), in that order: 51.8 µM and 45.1 µM.
